{
  "source": "paper PMC12598616",
  "about": "“Design and optimization of caspase-1-responsive fluorescent probes for pyroptosis imaging and anti-pyroptosis drug screening” (Chemical Science, 2025)",
  "key": {"[1]": {"system": "activated Cas-1 in primary peritoneal macrophages", "assay": "High-content screening / fluorescence imaging for caspase-1 modulators in primary peritoneal macrophages", "assay_type": "cell-based, mouse", "conditions": "LPS then Nig 10 μM 2 h; FPy1 5 μM", "description": "The efficient and rapid discovery of Cas-1 modulators is of significant importance considering the therapeutic potential of Cas-1 in various diseases.[39,40] Therefore, we employed FPy1 to construct a high-content screening system aimed at identifying Cas-1 modulators. The level of activated Cas-1 in cells is influenced by multiple factors. To reduce the impact of factors that affect Cas-1 activation in cells, we utilized the NLRP3 inflammasome-mediated Cas-1 activation model, administering the drug during the second stage where the zymogen was converted into activated Cas-1. MCC950, a selective NLRP3 inflammasome inhibitor that could suppress Cas-1 activation, was selected as the positive drug.[41] […] To validate the efficacy of the Cas-1 modulator screening system (Fig. 6a), we first observed the fluorescence images of PMs stained with FPy1 (5 μM) in the control group, model group, and positive drug group. […] Subsequently, the impact of 25 natural products (10 μM) on activated Cas-1 were studied using high-content analysis (Fig. S20). […] To determine whether deoxyshikonin directly binds to Cas-1 and inhibits its activity, we conducted fluorescence detection following co-incubation of deoxyshikonin, FPy1 and Cas-1. […]\nHarvested rat discs were fixed in 4 % buffered paraformaldehyde for 24 hours, decalcified in 10 % ethylenediaminetetraacetic acid (EDTA, Solarbio, E8030) solution for 1 month, embedded in paraffin, and sectioned at a thickness of 5 μm. […] Stained sections were evaluated by three independent raters, blinded to the research protocol, and measurements were averaged for statistical analysis. […]\nIn vivo fluorescence imaging of intervertebral disc degeneration\nTwelve rats were modeled with needle puncture-induced intervertebral disc degeneration at the Co5/6, Co6/7 and Co 7/8 levels. […] In vivo fluorescence images were acquired using an in vivo Imaging System (PerkinElmer). […]\nIn vivo fluorescence imaging of osteoarthritis […]"}, "[2]": {"system": "Cas-1 in primary chondrocytes", "assay": "Intracellular imaging in primary chondrocytes", "assay_type": "cell-based", "conditions": "H2O2 2 mM 30, 60, 90 min; FPy1 5 μM 1 h", "description": "The decline in chondrocyte function plays a crucial role in the pathogenesis of OA. Inflammasome-mediated chondrocyte pyroptosis has been closely associated with matrix degradation and cartilage degeneration in OA.[38] To model OA in vitro, primary chondrocytes were stimulated with H2O2 (2 mM) for different durations, followed by staining with FPy1 (5 μM) and fluorescence imaging to monitor the progression of pyroptosis under oxidative stress. […] To better mimic the in vivo pathological features of OA, primary chondrocytes were also cultured as three-dimensional spheroids and stimulated with H2O2. […] Furthermore, we evaluated the capability of FPy1 to monitor pyroptosis progression at different stages of OA in a mouse model. […] The pathological manifestations in the corresponding tissues became more pronounced with longer modeling periods, consistent with the fluorescence imaging results obtained using FPy1. […]\nChondrocytes were isolated from articular cartilage and resuspended in 1mL DMEM/F12 medium containing 10 μM ITS-A. A total of […] were counted and transferred into centrifuge tubes. […]\nThe chondrocytes or 3D cell spheroids were seeded in dishes and cultured overnight. […] Fluorescence imaging was then performed with an excitation of 514 nm, and signals were […]"}},
  "data": [
    {"substance": "–FLTDG– [FPy1, RhoB donor, hNR quencher]", "values": [
      {"measurement": "fluorescence of FPy1-stained macrophages, model vs control group", "setting": "[1]", "value": "significant fluorescence enhancement compared to the control group"},
      {"measurement": "intracellular fluorescence intensity in primary chondrocytes", "setting": "[2]", "value": "increased with prolonged H2O2 stimulation"}
    ]}
  ]
}
